Measurements: the supplement of paper PMC10307832

Experiments:
Test in all cases: relative viability (nuclei count vs DMSO), 5 days (fraction); higher = more cells survive
[1] = tested on: NCI-H1792
Summary of the method: (§1)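 A single step with final 0.05% Triton X-100, 1% formaldehyde and 1 ug/ml Hoechst fixed the cells and stained nuclei 5 days after treatment. Lung cancer cell lines in 1536-well plates had been treated by pin tool the day after seeding with one drug alone or a fixed anchor-drug dose plus five library-drug doses (not always all listed) in √10 steps, and nuclei were counted on 4× images. Relative viability is the ratio of nuclei in treated wells to nuclei in vehicle wells, taken as the median of duplicate plates.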

[2] = tested on: NCI-H1437
Summary of the method: as §1

[3] = tested on: NCI-H2342
Summary of the method: as §1

[4] = tested on: A-427
Summary of the method: as §1

[5] = tested on: NCI-H650
Summary of the method: as §1

[6] = tested on: NCI-H1975
Summary of the method: as §1

[7] = tested on: HCC-15
Summary of the method: as §1

[8] = tested on: NCI-H838
Summary of the method: as §1

[9] = tested on: NCI-H23
Summary of the method: as §1

[10] = tested on: SW 900
Summary of the method: as §1

[11] = tested on: EKVX
Summary of the method: as §1

[12] = tested on: COR-L23
Summary of the method: as §1

[13] = tested on: 201T
Summary of the method: as §1

[14] = tested on: NCI-H1666
Summary of the method: as §1

[15] = tested on: HCC-827
Summary of the method: as §1

[16] = tested on: HCC-44
Summary of the method: as §1

[17] = tested on: SK-MES-1
Summary of the method: as §1

[18] = tested on: NCI-H358
Summary of the method: as §1

[19] = tested on: NCI-H441
Summary of the method: as §1

[20] = tested on: BEN
Summary of the method: as §1

[21] = tested on: HARA
Summary of the method: as §1

[22] = tested on: NCI-H596
Summary of the method: as §1

[23] = tested on: NCI-H1650
Summary of the method: as §1

SMILES: COc1nc(C)cnc1NS(=O)(=O)c1cccnc1-c1ccc(-c2nnco2)cc1 [Zibotentan] + CCNC(=O)c1noc(-c2cc(C(C)C)c(O)cc2O)c1-c1ccc(CN2CCOCC2)cc1 [Luminespib] (partner 0.01 µM)
- relative viability ([1]; first compound 0.08 µM): 0.417
- relative viability ([1]; first compound 0.253 µM): 0.362
- relative viability ([1]; first compound 0.8 µM): 0.469
- relative viability ([1]; first compound 2.53 µM): 0.346
- relative viability ([2]; first compound 0.08 µM): 1.15
- relative viability ([2]; first compound 0.253 µM): 0.967
- relative viability ([2]; first compound 0.8 µM): 1.12
- relative viability ([2]; first compound 2.53 µM): 1.15
- relative viability ([3]; first compound 0.08 µM): 0.702
- relative viability ([3]; first compound 0.253 µM): 0.617
- relative viability ([3]; first compound 0.8 µM): 0.652
- relative viability ([3]; first compound 2.53 µM): 0.738
- relative viability ([4]; first compound 0.08 µM): 1.16
- relative viability ([4]; first compound 0.253 µM): 0.857
- relative viability ([4]; first compound 0.8 µM): 0.998
- relative viability ([4]; first compound 2.53 µM): 0.911
- relative viability ([5]; first compound 0.08 µM): 0.869
- relative viability ([5]; first compound 0.253 µM): 0.667
- relative viability ([5]; first compound 0.8 µM): 0.865
- relative viability ([5]; first compound 2.53 µM): 0.856
- relative viability ([6]; first compound 0.08 µM): 0.305
- relative viability ([6]; first compound 0.253 µM): 0.0756
- relative viability ([6]; first compound 0.8 µM): 0.198
- relative viability ([6]; first compound 2.53 µM): 0.218
- relative viability ([7]; first compound 0.08 µM): 0.244
- relative viability ([7]; first compound 0.253 µM): 0.114
- relative viability ([7]; first compound 0.8 µM): 0.4
- relative viability ([7]; first compound 2.53 µM): 0.365
- relative viability ([8]; first compound 0.08 µM): 0.21
- relative viability ([8]; first compound 0.253 µM): 0.212
- relative viability ([8]; first compound 0.8 µM): 0.314
- relative viability ([8]; first compound 2.53 µM): 0.313
- relative viability ([9]; first compound 0.08 µM): 0.199
- relative viability ([9]; first compound 0.8 µM): 0.231
- relative viability ([9]; first compound 2.53 µM): 0.186
- relative viability ([10]; first compound 0.08 µM): 0.203
- relative viability ([10]; first compound 0.253 µM): 0.174
- relative viability ([10]; first compound 0.8 µM): 0.177
- relative viability ([10]; first compound 2.53 µM): 0.172
- relative viability ([11]; first compound 0.08 µM): 0.762
- relative viability ([11]; first compound 0.253 µM): 0.88
- relative viability ([11]; first compound 0.8 µM): 0.832
- relative viability ([11]; first compound 2.53 µM): 0.877
- relative viability ([12]; first compound 0.08 µM): 0.879
- relative viability ([12]; first compound 0.253 µM): 0.656
- relative viability ([12]; first compound 0.8 µM): 0.719
- relative viability ([12]; first compound 2.53 µM): 0.667
- relative viability ([13]; first compound 0.08 µM): 1.11
- relative viability ([13]; first compound 0.253 µM): 1.03
- relative viability ([13]; first compound 0.8 µM): 1.14
- relative viability ([13]; first compound 2.53 µM): 1.07
- relative viability ([14]; first compound 0.08 µM): 0.96
- relative viability ([14]; first compound 0.253 µM): 0.905
- relative viability ([14]; first compound 0.8 µM): 1.02
- relative viability ([14]; first compound 2.53 µM): 1.05
- relative viability ([15]; first compound 0.08 µM): 0.574
- relative viability ([15]; first compound 0.253 µM): 0.501
- relative viability ([15]; first compound 0.8 µM): 0.442
- relative viability ([15]; first compound 2.53 µM): 0.774
- relative viability ([16]; first compound 0.08 µM): 1.63
- relative viability ([16]; first compound 0.8 µM): 1.07
- relative viability ([16]; first compound 2.53 µM): 1.08
- relative viability ([17]; first compound 0.08 µM): 1.05
- relative viability ([17]; first compound 0.253 µM): 0.788
- relative viability ([17]; first compound 0.8 µM): 0.818
- relative viability ([17]; first compound 2.53 µM): 0.83
- relative viability ([18]; first compound 0.08 µM): 0.302
- relative viability ([18]; first compound 0.8 µM): 0.435
- relative viability ([18]; first compound 2.53 µM): 0.555
- relative viability ([19]; first compound 0.08 µM): 0.41
- relative viability ([19]; first compound 0.253 µM): 0.255
- relative viability ([19]; first compound 0.8 µM): 0.345
- relative viability ([19]; first compound 2.53 µM): 0.368
- relative viability ([20]; first compound 0.08 µM): 0.401
- relative viability ([20]; first compound 0.253 µM): 0.356
- relative viability ([20]; first compound 0.8 µM): 0.395
- relative viability ([20]; first compound 2.53 µM): 0.537
- relative viability ([21]; first compound 0.08 µM): 0.731
- relative viability ([21]; first compound 0.253 µM): 0.705
- relative viability ([21]; first compound 0.8 µM): 0.636
- relative viability ([21]; first compound 2.53 µM): 0.836
- relative viability ([22]; first compound 0.08 µM): 1.02
- relative viability ([22]; first compound 0.253 µM): 0.939
- relative viability ([22]; first compound 0.8 µM): 1.16
- relative viability ([22]; first compound 2.53 µM): 1.03
- relative viability ([23]; first compound 0.08 µM): 0.177
- relative viability ([23]; first compound 0.8 µM): 0.204
- relative viability ([23]; first compound 2.53 µM): 0.195

SMILES: COc1nc(C)cnc1NS(=O)(=O)c1cccnc1-c1ccc(-c2nnco2)cc1 [Zibotentan] + N=C(N)NC(=N)NCCc1ccccc1 [Phenformin] (partner 250 µM)
- relative viability ([1]; first compound 0.08 µM): 0.424
- relative viability ([1]; first compound 0.253 µM): 0.244
- relative viability ([1]; first compound 0.8 µM): 0.355
- relative viability ([1]; first compound 2.53 µM): 0.259
- relative viability ([2]; first compound 0.08 µM): 0.308
- relative viability ([2]; first compound 0.253 µM): 0.297
- relative viability ([2]; first compound 0.8 µM): 0.297
- relative viability ([2]; first compound 2.53 µM): 0.347
- relative viability ([3]; first compound 0.08 µM): 0.782
- relative viability ([3]; first compound 0.253 µM): 0.595
- relative viability ([3]; first compound 0.8 µM): 0.603
- relative viability ([3]; first compound 2.53 µM): 0.559
- relative viability ([4]; first compound 0.08 µM): 0.38
- relative viability ([4]; first compound 0.253 µM): 0.39
- relative viability ([4]; first compound 0.8 µM): 0.397
- relative viability ([4]; first compound 2.53 µM): 0.348
- relative viability ([5]; first compound 0.08 µM): 0.445
- relative viability ([5]; first compound 0.253 µM): 0.389
- relative viability ([5]; first compound 0.8 µM): 0.508
- relative viability ([5]; first compound 2.53 µM): 0.461
- relative viability ([6]; first compound 0.08 µM): 0.428
- relative viability ([6]; first compound 0.253 µM): 0.398
- relative viability ([6]; first compound 0.8 µM): 0.419
- relative viability ([6]; first compound 2.53 µM): 0.413
- relative viability ([7]; first compound 0.08 µM): 0.524
- relative viability ([7]; first compound 0.8 µM): 0.493
- relative viability ([7]; first compound 2.53 µM): 0.451
- relative viability ([8]; first compound 0.08 µM): 0.586
- relative viability ([8]; first compound 0.253 µM): 0.586
- relative viability ([8]; first compound 0.8 µM): 0.55
- relative viability ([8]; first compound 2.53 µM): 0.567
- relative viability ([9]; first compound 0.08 µM): 0.85
- relative viability ([9]; first compound 0.253 µM): 0.762
- relative viability ([9]; first compound 0.8 µM): 0.761
- relative viability ([9]; first compound 2.53 µM): 0.86
- relative viability ([10]; first compound 0.08 µM): 0.557
- relative viability ([10]; first compound 0.253 µM): 0.502
- relative viability ([10]; first compound 0.8 µM): 0.669
- relative viability ([10]; first compound 2.53 µM): 0.801
- relative viability ([11]; first compound 0.08 µM): 0.242
- relative viability ([11]; first compound 0.253 µM): 0.238
- relative viability ([11]; first compound 0.8 µM): 0.249
- relative viability ([11]; first compound 2.53 µM): 0.245
- relative viability ([12]; first compound 0.08 µM): 0.445
- relative viability ([12]; first compound 0.253 µM): 0.376
- relative viability ([12]; first compound 0.8 µM): 0.506
- relative viability ([12]; first compound 2.53 µM): 0.416
- relative viability ([13]; first compound 0.08 µM): 0.477
- relative viability ([13]; first compound 0.253 µM): 0.451
- relative viability ([13]; first compound 0.8 µM): 0.441
- relative viability ([13]; first compound 2.53 µM): 0.442
- relative viability ([14]; first compound 0.08 µM): 0.515
- relative viability ([14]; first compound 0.253 µM): 0.54
- relative viability ([14]; first compound 0.8 µM): 0.596
- relative viability ([14]; first compound 2.53 µM): 0.559
- relative viability ([15]; first compound 0.08 µM): 0.429
- relative viability ([15]; first compound 0.253 µM): 0.399
- relative viability ([15]; first compound 0.8 µM): 0.387
- relative viability ([15]; first compound 2.53 µM): 0.421
- relative viability ([16]; first compound 0.08 µM): 0.167
- relative viability ([16]; first compound 0.253 µM): 0.201
- relative viability ([16]; first compound 0.8 µM): 0.273
- relative viability ([16]; first compound 2.53 µM): 0.158
- relative viability ([17]; first compound 0.08 µM): 0.714
- relative viability ([17]; first compound 0.253 µM): 0.612
- relative viability ([17]; first compound 0.8 µM): 0.678
- relative viability ([17]; first compound 2.53 µM): 0.692
- relative viability ([18]; first compound 0.08 µM): 0.288
- relative viability ([18]; first compound 0.253 µM): 0.134
- relative viability ([18]; first compound 0.8 µM): 0.328
- relative viability ([18]; first compound 2.53 µM): 0.345
- relative viability ([19]; first compound 0.08 µM): 1.07
- relative viability ([19]; first compound 0.253 µM): 0.665
- relative viability ([19]; first compound 0.8 µM): 0.926
- relative viability ([19]; first compound 2.53 µM): 0.895
- relative viability ([20]; first compound 0.08 µM): 0.278
- relative viability ([20]; first compound 0.253 µM): 0.261
- relative viability ([20]; first compound 0.8 µM): 0.241
- relative viability ([20]; first compound 2.53 µM): 0.264
- relative viability ([21]; first compound 0.08 µM): 0.462
- relative viability ([21]; first compound 0.253 µM): 0.429
- relative viability ([21]; first compound 0.8 µM): 0.217
- relative viability ([21]; first compound 2.53 µM): 0.489
- relative viability ([22]; first compound 0.08 µM): 0.842
- relative viability ([22]; first compound 0.253 µM): 0.786
- relative viability ([22]; first compound 0.8 µM): 0.794
- relative viability ([22]; first compound 2.53 µM): 0.805
- relative viability ([23]; first compound 0.08 µM): 0.454
- relative viability ([23]; first compound 0.8 µM): 0.516
- relative viability ([23]; first compound 2.53 µM): 0.428
